# In patent publication US6376518B1, “Acyl derivatives of 4-demethylpenclomedine, use thereof and preparation thereof” (Southern Research Institute, priority 1999, dated 2002):
# Read-outs that look alike come from different tables or passages of the source.
# Assays:
# human MX-1 mammary tumor [1] = test: In vivo antitumor activity vs s.c.-implanted human MX-1 mammary tumor xenograft in athymic mice; conditions: sc MX-1, Days 12-16
# human MX-1 mammary tumor [2] = test: In vivo antitumor activity vs i.c.-implanted human MX-1 mammary tumor xenograft in athymic mice; conditions: ic MX-1; for Tumor-Free-Surv/Total / Median % ILS (dying mice only): Days 1-5
# P388/0 leukemia = conditions: P388/0; for MEDIAN DAY OF DEATH: dying mice only
# P388/L-PAM leukemia = conditions: for MEDIAN DAY OF DEATH: dying mice only
# P388/BCNU leukemia = test: Antitumor activity against IP-implanted P388/BCNU leukemia in mice; conditions: P388/BCNU, Q1D × 5 (1); for MEDIAN DAY OF DEATH: dying mice only
# P388/CPA leukemia = test: Antitumor activity against IP-implanted P388/CPA leukemia in mice; format: in vivo, murine; conditions: P388/CPA, Q1D × 5 (1)
# [3] = optimal doses (LD10 or less), schedule QD1-5, administered LP.
# [4] = IP 20.0 mg/kg/dose, Q1D × 1 (1)
# [5] = P388/L-PAM, IP 15.0 mg/kg/dose, Q1D × 1 (1)
# [6] = P388/L-PAM, IP 20.0 mg/kg/dose, Q1D × 1 (1)
# [7] = IP 60.0 mg/kg/dose, Q1D × 5 (1)
# [8] = IP 90.0 mg/kg/dose, Q1D × 5 (1)
# [9] = IP 135.0 mg/kg/dose, Q1D × 5 (1)
# [10] = P388/L-PAM, IP 60.0 mg/kg/dose, Q1D × 5 (1)
# [11] = P388/L-PAM, IP 90.0 mg/kg/dose, Q1D × 5 (1)
# [12] = P388/L-PAM, IP 135.0 mg/kg/dose, Q1D × 5 (1)
compound,measurement,setting,value
COc1nc(C(Cl)(Cl)Cl)c(Cl)c(OC(=O)CI)c1Cl [DM-IA-PEN],Dose (mg/kg) with observed lethality level,human MX-1 mammary tumor [1]; IP 60 mg/kg/dose,60 (LD40)
same,Tumor-Free-Surv/Total,human MX-1 mammary tumor [1]; IP 60 mg/kg/dose,1/5
CCCCCCCC(=O)Oc1c(Cl)c(OC)nc(C(Cl)(Cl)Cl)c1Cl [DM-O-PEN],activity against i.c.-implanted tumor in comparison to PEN and DM-PEN (in words),human MX-1 mammary tumor [2],significant activity
same,Tumor-Free-Surv/Total,human MX-1 mammary tumor [2]; IP 90 mg/kg/dose,0/5
same,Survivors,human MX-1 mammary tumor [2]; [3],0/5
COc1nc(C(Cl)(Cl)Cl)c(Cl)c(OC(=O)C(Cl)Cl)c1Cl [DM-DCA-PEN],Tumor-Free-Surv/Total,human MX-1 mammary tumor [1]; IP 135 mg/kg/dose,2/5
"N[C@@H](Cc1ccc(N(CCCl)CCCl)cc1)C(=O)O [L-PAM (melphalan), melphalan]",50-DAY SURV/TOTAL,"P388/0 leukemia; IP 15.0 mg/kg/dose, Q1D × 1 (1)",6/6
same,50-DAY SURV/TOTAL,P388/0 leukemia; [4],6/6
same,% ILS,P388/0 leukemia; [4],+209%
same,APPROX. NET LOG10 CHANGE IN TUMOR BURDEN AT END OF Rx,P388/0 leukemia; [4],ca −8.8
same,MEDIAN DAY OF DEATH,P388/0 leukemia; [4],34.0
same,50-DAY SURV/TOTAL,P388/L-PAM leukemia; [5],0/6
same,% ILS,P388/L-PAM leukemia; [5],+14%
same,APPROX. NET LOG10 CHANGE IN TUMOR BURDEN AT END OF Rx,P388/L-PAM leukemia; [5],−1.8
same,MEDIAN DAY OF DEATH,P388/L-PAM leukemia; [5],18.0
same,50-DAY SURV/TOTAL,P388/L-PAM leukemia; [6],0/6
same,% ILS,P388/L-PAM leukemia; [6],+14%
same,APPROX. NET LOG10 CHANGE IN TUMOR BURDEN AT END OF Rx,P388/L-PAM leukemia; [6],−1.8
same,MEDIAN DAY OF DEATH,P388/L-PAM leukemia; [6],18.0
COc1nc(C(Cl)(Cl)Cl)c(Cl)c(OC(=O)COC(C)=O)c1Cl [DM-AA-PEN],Median % ILS (dying mice only),human MX-1 mammary tumor [2]; IP 135 mg/kg/dose,+67%
same,Tumor-Free-Surv/Total,human MX-1 mammary tumor [2]; IP 135 mg/kg/dose,0/5
same,Tumor-Free-Surv/Total,human MX-1 mammary tumor [2]; oral (gavage) 135 mg/kg/dose,2/5
"COc1nc(C(Cl)(Cl)Cl)c(Cl)c(O)c1Cl [DM-PEN, 3,5-dichloro-2-methoxy-4-hydroxy-6-(trichloromethyl)pyridine]",Median % ILS (based on dying mice only),human MX-1 mammary tumor [2]; [3],60%
same,Survivors,human MX-1 mammary tumor [2]; [3],0/5
same,50-DAY SURV/TOTAL,P388/0 leukemia; [7],0/6
same,% ILS,P388/0 leukemia; [7],+45%
same,APPROX. NET LOG10 CHANGE IN TUMOR BURDEN AT END OF Rx,P388/0 leukemia; [7],−0.8
same,MEDIAN DAY OF DEATH,P388/0 leukemia; [7],16.0
same,50-DAY SURV/TOTAL,P388/0 leukemia; [8],0/6
same,% ILS,P388/0 leukemia; [8],+72%
same,APPROX. NET LOG10 CHANGE IN TUMOR BURDEN AT END OF Rx,P388/0 leukemia; [8],−3.1
same,MEDIAN DAY OF DEATH,P388/0 leukemia; [8],19.0
same,50-DAY SURV/TOTAL,P388/0 leukemia; [9],0/6
same,% ILS,P388/0 leukemia; [9],−23%
same,Toxicity / lethality level at the dosage (LD),P388/0 leukemia; [9],TOXIC
same,MEDIAN DAY OF DEATH,P388/0 leukemia; [9],8.5
same,50-DAY SURV/TOTAL,P388/BCNU leukemia; IP 60.0 mg/kg/dose,0/6
same,% ILS,P388/BCNU leukemia; IP 60.0 mg/kg/dose,+33%
same,APPROX. NET LOG10 CHANGE IN TUMOR BURDEN AT END OF Rx,P388/BCNU leukemia; IP 60.0 mg/kg/dose,+0.8
same,MEDIAN DAY OF DEATH,P388/BCNU leukemia; IP 60.0 mg/kg/dose,12.0
same,50-DAY SURV/TOTAL,P388/BCNU leukemia; IP 90.0 mg/kg/dose,0/6
same,% ILS,P388/BCNU leukemia; IP 90.0 mg/kg/dose,+55%
same,APPROX. NET LOG10 CHANGE IN TUMOR BURDEN AT END OF Rx,P388/BCNU leukemia; IP 90.0 mg/kg/dose,−0.8
same,MEDIAN DAY OF DEATH,P388/BCNU leukemia; IP 90.0 mg/kg/dose,14.0
same,50-DAY SURV/TOTAL,P388/BCNU leukemia; IP 135.0 mg/kg/dose,0/6
same,% ILS,P388/BCNU leukemia; IP 135.0 mg/kg/dose,+88%
same,APPROX. NET LOG10 CHANGE IN TUMOR BURDEN AT END OF Rx,P388/BCNU leukemia; IP 135.0 mg/kg/dose,−3.1
same,Toxicity / lethality level at the dosage (LD),P388/BCNU leukemia; IP 135.0 mg/kg/dose,LD17
same,MEDIAN DAY OF DEATH,P388/BCNU leukemia; IP 135.0 mg/kg/dose,17.0
same,50-DAY SURV/TOTAL,P388/CPA leukemia; IP 60.0 mg/kg/dose,0/6
same,% ILS,P388/CPA leukemia; IP 60.0 mg/kg/dose,+22%
same,APPROX. NET LOG10 CHANGE IN TUMOR BURDEN AT END OF Rx,P388/CPA leukemia; IP 60.0 mg/kg/dose,+0.9
same,50-DAY SURV/TOTAL,P388/CPA leukemia; IP 90.0 mg/kg/dose,0/6
same,% ILS,P388/CPA leukemia; IP 90.0 mg/kg/dose,+54%
same,APPROX. NET LOG10 CHANGE IN TUMOR BURDEN AT END OF Rx,P388/CPA leukemia; IP 90.0 mg/kg/dose,−1.1
same,MEDIAN DAY OF DEATH,"P388/CPA leukemia; IP 90.0 mg/kg/dose, dying mice only",17.0
same,50-DAY SURV/TOTAL,P388/CPA leukemia; IP 135.0 mg/kg/dose,0/6
same,% ILS,P388/CPA leukemia; IP 135.0 mg/kg/dose,+31%
same,APPROX. NET LOG10 CHANGE IN TUMOR BURDEN AT END OF Rx,P388/CPA leukemia; IP 135.0 mg/kg/dose,+0.3
same,50-DAY SURV/TOTAL,P388/L-PAM leukemia; [10],0/6
same,% ILS,P388/L-PAM leukemia; [10],−4%
same,APPROX. NET LOG10 CHANGE IN TUMOR BURDEN AT END OF Rx,P388/L-PAM leukemia; [10],+1.6
same,50-DAY SURV/TOTAL,P388/L-PAM leukemia; [11],0/6
same,% ILS,P388/L-PAM leukemia; [11],−8%
same,APPROX. NET LOG10 CHANGE IN TUMOR BURDEN AT END OF Rx,P388/L-PAM leukemia; [11],+1.6
same,MEDIAN DAY OF DEATH,P388/L-PAM leukemia; [11],13.0
same,50-DAY SURV/TOTAL,P388/L-PAM leukemia; [12],0/6
same,% ILS,P388/L-PAM leukemia; [12],−4%
same,APPROX. NET LOG10 CHANGE IN TUMOR BURDEN AT END OF Rx,P388/L-PAM leukemia; [12],+1.6
same,Toxicity / lethality level at the dosage (LD),P388/L-PAM leukemia; [12],LD33
same,activity in the P388/L-PAM tumor model (in words),"P388/L-PAM leukemia; mouse, in vivo",none of the three showed significant activity
COc1nc(C(Cl)(Cl)Cl)c(Cl)c(OC(=O)c2ccncc2)c1Cl [DM-IN-PEN],Dose (mg/kg) with observed lethality level,human MX-1 mammary tumor [1]; IP 90 mg/kg/dose,90 (LD20)
same,Tumor-Free-Surv/Total,human MX-1 mammary tumor [1]; IP 90 mg/kg/dose,3/5
COc1nc(C(Cl)(Cl)Cl)c(Cl)c(OC(=O)c2ccc(CCl)cc2)c1Cl [DM-CMB-PEN],Median % ILS (dying mice only),human MX-1 mammary tumor [2]; IP 90 mg/kg/dose,+73%
same,Tumor-Free-Surv/Total,human MX-1 mammary tumor [2]; IP 90 mg/kg/dose,0/5
